From BigSolDB 2.1

Nc1cncc(Cl)n1
solubility (mole fraction) (in DMF, 278.15 K): 0.00915 | solubility (mole fraction) (in DMF, 283.15 K): 0.0111 | solubility (mole fraction) (in DMF, 288.15 K): 0.0135 | solubility (mole fraction) (in DMF, 293.15 K): 0.0162 | solubility (mole fraction) (in DMF, 298.15 K): 0.0194 | solubility (mole fraction) (in DMF, 303.15 K): 0.023 | solubility (mole fraction) (in DMF, 308.15 K): 0.0271 | solubility (mole fraction) (in DMF, 313.15 K): 0.0322 | solubility (mole fraction) (in DMF, 318.15 K): 0.0378 | solubility (mole fraction) (in DMF, 323.15 K): 0.0442 | solubility (mole fraction) (in acetone, 278.15 K): 0.0117 | solubility (mole fraction) (in acetone, 283.15 K): 0.0141 | solubility (mole fraction) (in acetone, 288.15 K): 0.0167 | solubility (mole fraction) (in acetone, 293.15 K): 0.0198 | solubility (mole fraction) (in acetone, 298.15 K): 0.0231 | solubility (mole fraction) (in acetone, 303.15 K): 0.0269 | solubility (mole fraction) (in acetone, 308.15 K): 0.0314 | solubility (mole fraction) (in acetone, 313.15 K): 0.0371 | solubility (mole fraction) (in acetone, 318.15 K): 0.0431 | solubility (mole fraction) (in acetone, 323.15 K): 0.0505 | solubility (mole fraction) (in acetonitrile, 278.15 K): 0.00984 | solubility (mole fraction) (in acetonitrile, 283.15 K): 0.0119 | solubility (mole fraction) (in acetonitrile, 288.15 K): 0.0143 | solubility (mole fraction) (in acetonitrile, 293.15 K): 0.0172 | solubility (mole fraction) (in acetonitrile, 298.15 K): 0.0209 | solubility (mole fraction) (in acetonitrile, 303.15 K): 0.0248 | solubility (mole fraction) (in acetonitrile, 308.15 K): 0.0295 | solubility (mole fraction) (in acetonitrile, 313.15 K): 0.0352 | solubility (mole fraction) (in acetonitrile, 318.15 K): 0.041 | solubility (mole fraction) (in acetonitrile, 323.15 K): 0.0488 | solubility (mole fraction) (in ethanol, 278.15 K): 0.00159 | solubility (mole fraction) (in ethanol, 283.15 K): 0.0019 | solubility (mole fraction) (in ethanol, 288.15 K): 0.00226 | solubility (mole fraction) (in ethanol, 293.15 K): 0.00272 | solubility (mole fraction) (in ethanol, 298.15 K): 0.00323 | solubility (mole fraction) (in ethanol, 303.15 K): 0.00384 | solubility (mole fraction) (in ethanol, 308.15 K): 0.00453 | solubility (mole fraction) (in ethanol, 313.15 K): 0.0053 | solubility (mole fraction) (in ethanol, 318.15 K): 0.00624 | solubility (mole fraction) (in ethanol, 323.15 K): 0.00756 | solubility (mole fraction) (in ethylene glycol, 278.15 K): 0.000717 | solubility (mole fraction) (in ethylene glycol, 283.15 K): 0.000905 | solubility (mole fraction) (in ethylene glycol, 288.15 K): 0.00113 | solubility (mole fraction) (in ethylene glycol, 293.15 K): 0.00141 | solubility (mole fraction) (in ethylene glycol, 298.15 K): 0.00172 | solubility (mole fraction) (in ethylene glycol, 303.15 K): 0.00204 | solubility (mole fraction) (in ethylene glycol, 308.15 K): 0.00239 | solubility (mole fraction) (in ethylene glycol, 313.15 K): 0.00281 | solubility (mole fraction) (in ethylene glycol, 318.15 K): 0.00325 | solubility (mole fraction) (in ethylene glycol, 323.15 K): 0.00377 | solubility (mole fraction) (in isopropanol, 278.15 K): 0.00421 | solubility (mole fraction) (in isopropanol, 283.15 K): 0.00503 | solubility (mole fraction) (in isopropanol, 288.15 K): 0.00608 | solubility (mole fraction) (in isopropanol, 293.15 K): 0.00737 | solubility (mole fraction) (in isopropanol, 298.15 K): 0.00874 | solubility (mole fraction) (in isopropanol, 303.15 K): 0.0104 | solubility (mole fraction) (in isopropanol, 308.15 K): 0.0122 | solubility (mole fraction) (in isopropanol, 313.15 K): 0.0146 | solubility (mole fraction) (in isopropanol, 318.15 K): 0.017 | solubility (mole fraction) (in isopropanol, 323.15 K): 0.0198 | solubility (mole fraction) (in methanol, 278.15 K): 0.00114 | solubility (mole fraction) (in methanol, 283.15 K): 0.00135 | solubility (mole fraction) (in methanol, 288.15 K): 0.00164 | solubility (mole fraction) (in methanol, 293.15 K): 0.00196 | solubility (mole fraction) (in methanol, 298.15 K): 0.00244 | solubility (mole fraction) (in methanol, 303.15 K): 0.00293 | solubility (mole fraction) (in methanol, 308.15 K): 0.00347 | solubility (mole fraction) (in methanol, 313.15 K): 0.00415 | solubility (mole fraction) (in methanol, 318.15 K): 0.00489 | solubility (mole fraction) (in methanol, 323.15 K): 0.00575 | solubility (mole fraction) (in n-propanol, 278.15 K): 0.00494 | solubility (mole fraction) (in n-propanol, 283.15 K): 0.00588 | solubility (mole fraction) (in n-propanol, 288.15 K): 0.00709 | solubility (mole fraction) (in n-propanol, 293.15 K): 0.00858 | solubility (mole fraction) (in n-propanol, 298.15 K): 0.0105 | solubility (mole fraction) (in n-propanol, 303.15 K): 0.0127 | solubility (mole fraction) (in n-propanol, 308.15 K): 0.0152 | solubility (mole fraction) (in n-propanol, 313.15 K): 0.0181 | solubility (mole fraction) (in n-propanol, 318.15 K): 0.0211 | solubility (mole fraction) (in n-propanol, 323.15 K): 0.0246 | solubility (mole fraction) (in propylene glycol, 278.15 K): 0.000917 | solubility (mole fraction) (in propylene glycol, 283.15 K): 0.00115 | solubility (mole fraction) (in propylene glycol, 288.15 K): 0.00139 | solubility (mole fraction) (in propylene glycol, 293.15 K): 0.00171 | solubility (mole fraction) (in propylene glycol, 298.15 K): 0.00204 | solubility (mole fraction) (in propylene glycol, 303.15 K): 0.00237 | solubility (mole fraction) (in propylene glycol, 308.15 K): 0.00281 | solubility (mole fraction) (in propylene glycol, 313.15 K): 0.00327 | solubility (mole fraction) (in propylene glycol, 318.15 K): 0.00379 | solubility (mole fraction) (in propylene glycol, 323.15 K): 0.00448 | solubility (mole fraction) (in water, 278.15 K): 3.62e-05 | solubility (mole fraction) (in water, 283.15 K): 4.42e-05 | solubility (mole fraction) (in water, 288.15 K): 5.21e-05 | solubility (mole fraction) (in water, 293.15 K): 6.29e-05 | solubility (mole fraction) (in water, 298.15 K): 7.43e-05 | solubility (mole fraction) (in water, 303.15 K): 8.97e-05 | solubility (mole fraction) (in water, 308.15 K): 0.000105 | solubility (mole fraction) (in water, 313.15 K): 0.000123 | solubility (mole fraction) (in water, 318.15 K): 0.000143 | solubility (mole fraction) (in water, 323.15 K): 0.000168
